Values belong to the compound of their own block, whether it stands above or below them. Activity calls are given as the source filed them. No cut-off for these calls is given here.
Key:
Histone deacetylase 4 = Histone deacetylase 4 (Homo sapiens, UniProt P56524); experiment: Inhibition of human HDAC4 catalytic domain (residues Thr648-Thr1057) expressed in Escherichia coli BL21using fluorogenic substrate by fluorescence assay
[1] = Ratio of IC50 for Mycoplana ramosa acetylpolyamine amidohydrolase to IC50 for HDAC8
[2] = target: T1, Arginase-1 (Homo sapiens) (UniProt P05089); experiment: (§1) Displacement of [14C-guanidino]-L-arginine from human recombinant full length arginase 1 expressed in Escherichia coli BL21(DE3) by fixed point assay
T1 sequence (whole entry): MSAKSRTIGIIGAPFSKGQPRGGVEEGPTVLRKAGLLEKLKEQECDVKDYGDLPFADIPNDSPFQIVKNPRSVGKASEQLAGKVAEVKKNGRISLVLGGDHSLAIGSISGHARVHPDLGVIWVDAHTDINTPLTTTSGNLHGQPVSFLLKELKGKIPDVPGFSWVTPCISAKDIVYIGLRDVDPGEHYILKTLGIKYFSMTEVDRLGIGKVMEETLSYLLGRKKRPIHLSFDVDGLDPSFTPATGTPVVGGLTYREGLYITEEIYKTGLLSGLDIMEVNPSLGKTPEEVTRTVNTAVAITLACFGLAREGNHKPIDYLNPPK

Arginase-1 = target: T2, Arginase-1 (Homo sapiens, UniProt P05089); experiment: as §1
T2 sequence (P05089 whole entry): T1 sequence (whole entry)

Histone deacetylase 4, sequence (P56524 whole entry, the tested form may be a part): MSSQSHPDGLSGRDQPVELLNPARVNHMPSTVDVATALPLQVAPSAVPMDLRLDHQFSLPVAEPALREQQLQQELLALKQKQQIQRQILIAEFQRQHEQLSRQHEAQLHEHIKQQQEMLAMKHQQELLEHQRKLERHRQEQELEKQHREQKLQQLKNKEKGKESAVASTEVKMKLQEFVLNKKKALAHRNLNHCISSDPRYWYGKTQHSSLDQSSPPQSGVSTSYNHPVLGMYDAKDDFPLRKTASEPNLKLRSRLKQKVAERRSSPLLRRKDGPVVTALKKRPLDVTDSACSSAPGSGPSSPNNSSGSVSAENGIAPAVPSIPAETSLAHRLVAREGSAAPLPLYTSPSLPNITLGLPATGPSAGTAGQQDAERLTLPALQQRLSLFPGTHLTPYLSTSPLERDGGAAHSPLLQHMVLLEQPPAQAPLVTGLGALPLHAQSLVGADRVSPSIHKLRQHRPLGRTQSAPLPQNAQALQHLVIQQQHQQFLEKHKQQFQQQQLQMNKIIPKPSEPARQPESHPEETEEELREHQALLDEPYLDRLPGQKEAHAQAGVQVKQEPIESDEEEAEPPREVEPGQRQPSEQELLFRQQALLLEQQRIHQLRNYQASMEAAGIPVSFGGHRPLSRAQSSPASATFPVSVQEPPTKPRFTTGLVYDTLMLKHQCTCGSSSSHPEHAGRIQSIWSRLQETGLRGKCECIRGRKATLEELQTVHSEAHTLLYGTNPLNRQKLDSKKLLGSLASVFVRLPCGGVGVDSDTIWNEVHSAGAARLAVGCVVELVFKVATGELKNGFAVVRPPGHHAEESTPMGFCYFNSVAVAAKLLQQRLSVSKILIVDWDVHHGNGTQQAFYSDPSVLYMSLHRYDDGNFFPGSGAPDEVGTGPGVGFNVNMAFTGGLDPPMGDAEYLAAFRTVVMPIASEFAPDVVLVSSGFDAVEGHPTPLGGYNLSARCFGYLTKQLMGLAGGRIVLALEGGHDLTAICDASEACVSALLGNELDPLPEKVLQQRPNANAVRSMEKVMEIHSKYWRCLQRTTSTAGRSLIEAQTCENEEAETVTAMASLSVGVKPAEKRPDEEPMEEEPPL

IC50 (Histone deacetylase 4): 0.367 µM
Compound: O=C(c1ccc(C(=O)C(F)(F)F)s1)N1CCn2c(-c3ccccc3)cnc2C1

Ratio IC50 [1]: 73
inhibition [2]: inactive
Compound: N[C@@H](CCCCC(=O)C(F)(F)F)C(=O)O

Kd (Arginase-1): 60 µM
Compound: N[C@@H](CCCCC=O)C(=O)O
